Data on ten compounds can be found in US8202866B2, “Ortho-aminoanilides for the treatment of cancer” (Hoffmann-La Roche Inc., priority 2008, dated 2012).

Test [1] relates to p21 promoter-luciferase construct in HeLa cells. Put plainly: p21 reporter gene induction assay, HeLa cells transfected with p21 promoter-luciferase construct. The note with it: compound at 3 micromolar; 15 hours incubation; relative to SNDX-275 (=100%). The format is cell-based. The method, then: The novel compounds of the present invention were tested for their ability to induce p21 gene expression using a reporter gene assay involving HeLa cells transfected with a p21 promoter-luciferase construct. The p21 promoter contained the Sp1/Sp3 binding site for HDAC but not the upstream p53 binding site. Briefly, the day before transfection, HeLa cells were seeded at 11,000 cells/well in a 96-well culture plate and incubated at 37 degrees Celsius in 5% CO2 overnight. For transfection, the medium was removed and replaced with 100 microliters/well transfection media previously prepared as follows: 5 microliters serum-free DMEM, 0.15 microliters Fugene 6 reagent, 40 ng p21-luc, 10 ng GFP were mixed gently and incubated at room temperature for 30 minutes; then 98 microliters DMEM (with 10% FBS, 1% penicillin and streptomycin) was added to the DNA:Fugene 6 reagent complex and mixed gently. After incubating the cells for 24 hours at 37 degrees Celsius in 5% CO2, fresh media and test compounds were added to the wells and the cells further incubated for 15 hours at 37 degrees Celsius in 5% CO2. Cells were lysed by adding 80 microliters/well of a cell culture lysis reagent (Promega). 50 microliters of each lysate was taken for GFP detection using an excitation wavelength of 486 nm and detection at 527 nm. 100 microliters Luciferase assay reagent (Promega) was then added to every 20 microliters cell lysate for luminometer detection. […] Induction activity for specific representative compounds can be found in Table 7.
A general note: In a reporter assay the amount or activity of a reporter protein is the signal.

Test [2] relates to SMMC-7721 liver cancer cells. Nature of the test: Antiproliferative activity, in vitro growth inhibition assay (MTS/WST), SMMC-7721. The settings on record: Homo sapiens, 72 hours; for IC90: concentration required for 90% growth inhibition, read-out: GI90 (micromolar) SMMC-7721; for GI50: read-out: GI50 (micromolar) SMMC-7721. The format is cell-based. The procedure: The novel compounds of the present invention were tested for their ability to inhibit growth of various cancer cell lines using in vitro growth inhibition assays described below.
Cells were seeded in 96-well culture plates (200 microliters/well at different seeding concentrations depending on cell type) and incubated overnight at 37 degrees Celsius in 5% CO2. After adding compound dilutions to the cells (DMSO concentration kept below 0.5%), the cells were incubated at 37 degrees Celsius in 5% CO2 for 72 hours. The effects on proliferation were determined by addition of MTS reagent (Promega) according to the manufacturer's instruction, followed by incubation for 2 hours at 37 degrees Celsius in 5% CO2, and finally recording the absorbance at 490 nm using an ELISA plate reader.
Similar to MTS assay except that the developer is the CCK-8 reagent (Dojindo) and the plate reader is set to 450 nm absorbance.
GI50 and GI90 values against SMMC-7721 liver cancer cells for specific representative compounds can be found in Table 7.

In the case of `Nc1ccccc1NC(=O)/C=C/c1ccc(C(CCCN2CCCCC2)C(=O)Nc2ccc(Br)cc2)cc1` (stereo not drawn) [Example 9-3, 2-{4-[(E)-2-(2-Amino-phenylcarbamoyl)-vinyl]-phenyl}-5-piperidin-1-yl-pentanoic acid (4-bromo-phenyl)-amide], in test [1], the “p21 (RP3): relative induction potency compared with SNDX-275” value (“p21 (RP3): relative induction potency” for short) is recorded as 305%. Further, in test [2], the IC90 came to 2.1 µM and the concentration for 50% growth inhibition (GI50) came to 0.8 µM.

On to `Nc1ccccc1NC(=O)/C=C/c1ccc(C(CCCN2CCCC(O)C2)C(=O)Nc2ccc(Br)cc2)cc1` (stereo not drawn) [Example 9-5, 2-{4-[(E)-2-(2-Amino-phenylcarbamoyl)-vinyl]-phenyl}-5-(3-hydroxy-piperidin-1-yl)-pentanoic acid (4-bromo-phenyl)-amide], for which, in test [1], the “p21 (RP3): relative induction potency” value is reported as 127%. For the same compound, in test [2], the IC90 was found to be 3.2 µM and the GI50 came out at 1.1 µM.

In the case of `CCN(CC)C1CCN(CC(C(=O)Nc2ccc(Cl)cc2)c2ccc(/C=C/C(=O)Nc3ccccc3N)cc2)C1` (stereo not drawn) [Example 31, (E)-N-(2-Amino-phenyl)-3-{4-[1-(4-chloro-phenylcarbamoyl)-2-(3-diethylamino-pyrrolidin-1-yl)-ethyl]phenyl}-acrylamide], the “p21 (RP3): relative induction potency” value in test [1] worked out at 243%. In addition, in test [2], the IC90 was 3.3 µM and the GI50 is 0.9 µM.

With `CC(C)c1ccc(NC(=O)C(CCCN2C[C@@H]3C[C@H]2CO3)c2ccc(/C=C/C(=O)Nc3ccccc3N)cc2)cc1` (stereo partly drawn) [Example 9-4, 2-{4-[(E)-2-(2-Amino-phenylcarbamoyl)-vinyl]-phenyl}-5-(1S,4S)-2-oxa-5-aza-bicyclo[2.2.1]hept-5-yl-pentanoic acid (4-isopropyl-phenyl)-amide], in test [1], the “p21 (RP3): relative induction potency” value turned out to be 155%. In test [2], the IC90 was determined as 4.9 µM and the GI50 came out at 1.4 µM.

Take `Nc1ccccc1NC(=O)c1ccc(CNC(=O)OCc2cccnc2)cc1` [SNDX-275, reference compound]: the “p21 (RP3): relative induction potency” value in test [1] worked out at 100%. In test [2], the IC90 came to 10.5 µM and the GI50 is 3.5 µM.

Turning to `Nc1ccccc1NC(=O)/C=C/c1ccc(C(CCCN2CCOCC2)C(=O)Nc2ccc(Br)cc2)cc1` (stereo not drawn) [Example 9, 2-{4-[(E)-2-(2-Amino-phenylcarbamoyl)-vinyl]phenyl}-5-morpholin-4-yl-pentanoic acid (4-bromo-phenyl)-amide], the “p21 (RP3): relative induction potency” value in test [1] is given as 253%. For the same compound, in test [2], the IC90 was found to be 2.9 µM and the GI50 turned out to be 1.3 µM.

As to `Nc1ccccc1NC(=O)/C=C/c1ccc(C(CCN2CCOCC2)C(=O)Nc2ccc(Br)cc2)cc1` (stereo not drawn) [Example 6-2, 2-{4-[(E)-2-(2-Amino-phenylcarbamoyl)-vinyl]-phenyl}-N-(4-bromo-phenyl)-4-morpholin-4-yl-butyramide], the “p21 (RP3): relative induction potency” value in test [1] worked out at 233%. In test [2], the IC90 was determined as 3.1 µM and the GI50 came to 1 µM.

In the case of `Nc1ccccc1NC(=O)/C=C/c1ccc(C(CCN2C[C@@H]3C[C@H]2CO3)C(=O)Nc2ccc(Br)cc2)cc1` (stereo partly drawn) [Example 6, 2-{4-[(E)-2-(2-Amino-phenylcarbamoyl)-vinyl]-phenyl}-N-(4-bromo-phenyl)-4-(1S,4S)-2-oxa-5-aza-bicyclo[2.2.1]hept-5-yl-butyramide], the “p21 (RP3): relative induction potency” value in test [1] was found to be 212%. In test [2], the IC90 worked out at 2.7 µM and the GI50 amounted to 0.8 µM.

Regarding `CN1CCCC1CCC(C(=O)Nc1ccc(Br)cc1)c1ccc(/C=C/C(=O)Nc2ccccc2N)cc1` (stereo not drawn) [Example 25, 2-{4-[(E)-2-(2-Amino-phenylcarbamoyl)-vinyl]-phenyl}-N-(4-bromo-phenyl)-4-(1-methyl-pyrrolidin-2-yl)-butyramide], the “p21 (RP3): relative induction potency” value in test [1] was found to be 199%. In addition, in test [2], the IC90 is 2.5 µM and the GI50 came out at 0.8 µM.

For `Nc1ccccc1NC(=O)/C=C/c1ccc(C(CCCN2C[C@@H]3C[C@H]2CO3)C(=O)Nc2ccc(Br)cc2)cc1` (stereo partly drawn) [Example 9-2, 2-{4-[(E)-2-(2-Amino-phenylcarbamoyl)-vinyl]-phenyl}-5-(1S,4S)-2-oxa-5-aza-bicyclo[2.2.1]hept-5-yl-pentanoic acid (4-bromo-phenyl)-amide], the “p21 (RP3): relative induction potency” value in test [1] is 74%. Moreover, in test [2], the IC90 amounted to 1.5 µM and the GI50 came out at 0.7 µM.

In general, GI50 refers to the concentration that inhibits growth by half.
